Test results from US7728029B2, “Adamantyl-pyrazole carboxamides as inhibitors of 11β-hdroxysteroid dehydrogenase” (Hoffmann-La Roche Inc., priority 2006, dated 2010).

How the values were obtained:
human 11betaHSD1 = target: T1, human 11betaHSD1 (Homo sapiens, UniProt P28845); assay: Human Hek Assay: cortisone to cortisol conversion in HEK-293 cells stably transfected with human 11betaHSD1, cortisol by ELISA; assay type: cell-based; conditions: HEK-293 cells transfected with human 11betaHSD1; 100 nM cortisone, 1 hour; read-out: humHEK (IC50)
T1 construct: stably transfected with full-length human 11betaHSD1 cDNA; expressed in transfected cells; host or cells: HEK-293
Procedure: HEK-293 cells stably transfected with full-length human 11betaHSD1 cDNA were propagated and expanded in DMEM high glucose media (Invitrogen Cat# 11995-065), supplemented with 10% FCS (Invitrogen Cat# 10082-147), pen/strep (10 μg/mL), and geneticin (10 μg/mL). One day prior to assay, cells were released from flasks using trypsin/EDTA, centrifuged, and washed with plating media (DMEM high glucose, without phenol red; Invitrogen Cat# 21063-029, supplemented with 2% charcoal stripped FCS; Gemini Cat# A22311P). From a 250,000 cells/mL suspension in plating media, 200 μL of cells were seeded into each well of a 96-well coated plate (BioCoat Cat#356461) and cultured overnight at 37° C. The following day, serially diluted 11betaHSD1 inhibitor compounds dissolved in DMSO were added to plating media supplemented with BSA (2 mg/mL final). The final DMSO concentration was 1%. Media was aspirated from plates, and compounds in media were added to each well. The plates were incubated at 37 degrees C. for 1 hour to allow for cellular uptake of compounds. 10 μL of substrate (cortisone) was then added to each well (100 nM final concentration) and incubated for 1 hour at 37 degrees C. Plates were then transferred to ice and 80 μL of media transferred to a 96-well plate and stored at −30° C.
Quantitation of cortisol in cell media was performed by competitive ELISA using ELISA-Light (Tropix Cat# T10206/EL100S4), anti-cortisol EIA antibody (Assay Designs, Inc. Cat#80-1148), and cortisol-enzyme conjugate (Assay Designs, Inc. Cat# 80-1147). 384-well plates (Falcon Cat#3988) were precoated with anti-mouse IgG (Sigma Cat# M-1397) suspended in 0.9% NaCl (5 mg/mL), 50 μL per well, overnight at 4 degrees C. Plates were washed with PBS, 0.1% Tween-20, then washed with PBS alone. Plates were blocked with Blocking Buffer (Tropix Cat# AI075) for 2 hours at room temperature. The plates were then washed as previously described. Assay samples were thawed, diluted 1:4 in DMEM, 2 mg/mL BSA, 1% DMSO, and 24 μL was transferred to wells of a pre-coated 384-well plate, as well as varying amounts of cortisol standard. To each well, 12 μL of cortisol-conjugate and 12 μL of anti-cortisol EIA antibody were added and incubated 2 hrs at room temperature on a orbital plate shaker. The wells were then emptied by inversion, then washed three times with 100 μL of Wash Buffer (Tropix), and then 2 times with 100 μL of Assay Buffer (Tropix). 60 μL of CDP-STAR (Tropix) was added to each well and incubated 10 minutes at room temperature. Chemiluminescence was measured using a Victor V Reader (Perkin Elmer). Cortisol in each sample was interpolated from a standard curve generated with known amounts of cortisol. IC50 values were calculated using the curve fitting software XLFit3 (IDBS).

human 11-β-HSD1 = target: T2, human 11-β-HSD1 (Homo sapiens, UniProt P28845); assay: Human H4IIE Assay: steroid conversion assay in H4IIe cells stably transfected with human 11-β-HSD1 cDNA, cortisol by ELISA; assay type: cell-based; conditions: H4IIe cells transfected with human 11-β-HSD1; 200 nM cortisone, 120 minutes; read-out: HumH4IIe (IC50)
T2 construct: expressed in transfected cells; host or cells: H4IIe
Procedure: H4IIe cells stably transfected with the human 11-β-HSD1 cDNA (humH4IIe) were maintained in Dulbeccos Modified Essential Medium (DMEM)+10% fetal bovine serum (FBS) containing Penicillin (100 IU/ml) and Streptomycin (100 μg/ml), Geneticin (800 μg/ml) and L-Glutamine (2 mM) at 37° C. in a humidified atmosphere (95% air, 5% CO2).
humH4IIe cells at 80% confluence in a 225 cm^2 flask were washed with PBS then detached with warm Trypsin/EDTA. The cells were counted and resuspended in Dulbeccos Modified Essential Medium lacking phenol red (DMEM) containing 2% stripped serum, at a concentration of 100,000 cells per 200 μl, and plated in a 96-well cell culture plate (precoated with Poly-Lysine). The cells were incubated overnight at 37° C. in a humidified atmosphere (95% air, 5% CO2).
Conversion assays were performed one day after seeding 96-well plates. The media was removed and replaced with 100 ul Dulbeccos Modified Essential Medium without phenol red (DMEM) containing 2 mg/ml Bovine Serum Albumin (BSA)+1% DMSO or test compound dissolved in DMSO.
The cells were incubated with test compound for 60 minutes at 37° C. in a humidified atmosphere (95% air, 5% CO2). After 60 minutes, cortisone was added to 200 nM final, and the cells were incubated for 120 minutes at 37° C. in a humidified atmosphere (95% air, 5% CO2).
The reaction was stopped by transferring 80 μl of media to an empty 96-well plate. Samples were stored at −20° C. until assayed for cortisol concentration using an ELISA method.

T2 sequence (P28845 whole entry): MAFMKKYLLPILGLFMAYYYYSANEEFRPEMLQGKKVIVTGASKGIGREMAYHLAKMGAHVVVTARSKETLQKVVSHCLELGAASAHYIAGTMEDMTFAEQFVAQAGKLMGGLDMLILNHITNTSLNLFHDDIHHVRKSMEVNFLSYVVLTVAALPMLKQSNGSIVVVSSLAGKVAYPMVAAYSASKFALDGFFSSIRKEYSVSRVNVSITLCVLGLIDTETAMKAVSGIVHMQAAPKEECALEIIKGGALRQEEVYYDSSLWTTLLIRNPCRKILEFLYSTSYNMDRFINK
T1 sequence (P28845 whole entry): as above

| Compound | IC50 (human 11betaHSD1) [nM] | IC50 (human 11-β-HSD1) [nM] |
| --- | --- | --- |
| Cn1ncc(C(=O)NC2C3CC4CC2CC(O)(C4)C3)c1-n1cccc1 (stereo not shown) [Example 1, 1-methyl-5-pyrrol-1-yl-1H-pyrazole-4-carboxylic acid (5-hydroxy-adamantan-2-yl)-amide] | 39.9 |  |
| Cn1ncc(C(=O)N[C@H]2C3CC4CC2C[C@](O)(C4)C3)c1-n1cccc1 [Example 2, trans-1-Methyl-5-pyrrol-1-yl-1H-pyrazole-4-carboxylic acid (5-hydroxy-adamantan-2-yl)-amide] | 22.2 |  |
| Cn1ncc(C(=O)NC2C3CC4CC(C3)CC2C4)c1Cl (stereo not shown) [Example 5, 5-Chloro-1-methyl-1H-pyrazole-4-carboxylic acid adamantan-2-ylamide] | 189 |  |
| CC(C)(C)n1ncc(C(=O)NC2C3CC4CC(C3)CC2C4)c1C(F)(F)F (stereo not shown) [Example 6, 1-tert-butyl-5-trifluoromethyl-1H-pyrazole-4-carboxylic acid adamantan-2-ylamide] | 9.8 |  |
| CC(C)(C)n1ncc(C(=O)N[C@H]2C3CC4CC2C[C@](O)(C4)C3)c1C(F)(F)F [Example 7, trans-1-tert-butyl-5-trifluoromethyl-1H-pyrazole-4-carboxylic acid (5-hydroxy-adamantan-2-yl)-amide] | 601 |  |
| CC(C)(C)n1ncc(C(=O)N[C@H]2C3CC4CC2C[C@@](O)(C4)C3)c1C(F)(F)F [Example 8, cis-1-tert-butyl-5-trifluoromethyl-1H-pyrazole-4-carboxylic acid (5-hydroxy-adamantan-2-yl)-amide] | 20.2 |  |
| Cn1ncc(C(=O)N[C@H]2C3CC4CC2C[C@](O)(C4)C3)c1-n1cccn1 [Example 9, trans-2′-Methyl-2′H-[1,3′]bipyrazolyl-4′-carboxylic acid (5-hydroxy-adamantan-2-yl)-amide] | 38.6 |  |
| O=C(NC1C2CC3CC(C2)CC1C3)c1cnn(C2CC2)c1C(F)(F)F (stereo not shown) [Example 12, 1-cyclopropyl-5-trifluoromethyl-1H-pyrazole-4-carboxylic acid adamantan-2-ylamide] | 22.2 |  |
| COCCN(C)c1c(C(=O)NC2C3CC4CC(C3)CC2C4)cnn1C (stereo not shown) [Example 32, 5-[(2-Methoxy-ethyl)-methyl-amino]-1-methyl-1H-pyrazole-4-carboxylic acid adamantan-2-ylamide] | 26.2 |  |
| CC(C)(C)OCCn1ncc(C(=O)N[C@H]2C3CC4CC2C[C@](O)(C4)C3)c1C(F)(F)F [Example 77, trans-1-(2-tert-Butoxyethyl)-5-trifluoromethyl-1H-pyrazole-4-carboxylic acid (5-hydroxy-adamantan-2-yl)-amide] |  | 4.6 |
| trans-2′-(2-Methoxyethyl)-2′H-[1,3′]bipyrazolyl-4′-carboxylic acid (5-hydroxy-adamantan-2-yl-amide [Example 73] | 22.9 | 0.6 |
| trans-2′-Methyl-2′H-[1,3′]bipyrazolyl-4′-carboxylic acid (5-acetylamino-adamantan-2-yl)-amide [Example 45] | 48.2 | 5.9 |

Now from value to compound:

| IC50 (human 11betaHSD1) [nM] | IC50 (human 11-β-HSD1) [nM] | Compound |
| --- | --- | --- |
| 23.3 |  | CN1CCN(c2c(C(=O)NC3C4CC5CC(C4)CC3C5)cnn2C)CC1 (stereo not shown) [Example 14, 1-Methyl-5-(4-methyl-piperazin-1-yl)-1H-pyrazole-4-carboxylic acid adamantan-2-ylamide] |
| 16.6 |  | Cn1ncc(C(=O)NC2C3CC4CC(C3)CC2C4)c1N1CCOCC1 (stereo not shown) [Example 22, 1-methyl-5-morpholin-4-yl-1H-pyrazole-4-carboxylic acid adamantan-2-ylamide] |
| 71.5 |  | COCCNc1c(C(=O)NC2C3CC4CC(C3)CC2C4)cnn1C (stereo not shown) [Example 23, 5-(2-Methoxy-ethylamino)-1-methyl-1H-pyrazole-4-carboxylic acid adamantan-2-ylamide] |
| 6.8 |  | CC(C)(C)n1ncc(C(=O)NC2C3CC4CC(C3)CC2C4)c1-n1cccn1 (stereo not shown) [Example 33, 2′-tert-Butyl-2′H-[1,3′]bipyrazolyl-4′-carboxylic acid adamantan-2-ylamide] |
| 19.2 | 5.6 | CC(C)(C)n1ncc(C(=O)N[C@H]2C3CC4CC2C[C@](O)(C4)C3)c1Cl [Example 34, trans-1-tert-Butyl-5-chloro-1H-pyrazole-4-carboxylic acid (5-hydroxy-adamantan-2-yl)-amide] |
| 20 | 0.5 | CC(C)(C)n1ncc(C(=O)N[C@H]2C3CC4CC2C[C@](O)(C4)C3)c1-n1cccn1 [Example 35, trans-2′-tert-Butyl-2′H-[1,3′]bipyrazolyl-4′-carboxylic acid (5-hydroxy-adamantan-2-yl)-amide] |
| 66.2 | 8.5 | CC(=O)NC12CC3CC(C1)C(NC(=O)c1cnn(C(C)(C)C)c1Cl)C(C3)C2 (stereo not drawn) [Example 46, trans-1-tert-Butyl-5-chloro-1H-pyrazole-4-carboxylic acid (5-acetylamino-adamantan-2-yl)-amide] |
| 18.1 | 0.3 | CC(=O)NC12CC3CC(C1)C(NC(=O)c1cnn(C(C)(C)C)c1C(F)(F)F)C(C3)C2 (stereo not drawn) [Example 48, trans-1-tert-Butyl-5-trifluoromethyl-1H-pyrazole-4-carboxylic acid (5-acetylamino-adamantan-2-yl)-amide] |
| 23.8 | 8 | CC(=O)NC12CC3CC(C1)C(NC(=O)c1cnn(C(C)(C)C)c1-n1cccn1)C(C3)C2 (stereo not drawn) [Example 50, trans-2′-tert-Butyl-2′H-[1,3′]bipyrazolyl-4′-carboxylic acid (5-acetylamino-adamantan-2-yl)-amide] |
| 76.9 | 6 | Cn1ncc(C(=O)NC2C3CC4CC2CC(NS(C)(=O)=O)(C4)C3)c1-n1cccn1 (stereo not drawn) [Example 53, trans-2′-Methyl-2′H-[1,3′]bipyrazolyl-4′-carboxylic acid (5-methanesulfonylamino-adamantan-2-yl)-amide] |
|  | 15.3 | COCCOCCn1ncc(C(=O)N[C@H]2C3CC4CC2C[C@](O)(C4)C3)c1-n1cccn1 [Example 76, trans-2′-[2-(2-Methoxyethoxy)-ethyl]-2′H-[1,3′]bipryazolyl-4′-carboxylic acid (5-hydroxyadamantan-2-yl)-amide] |
